The term LD50 denotes the dose expected to kill half of the subjects tested.

These results are taken from patent US4650900A, “Aminoalkyl substituted urea derivatives and method of treatment” (H. Lundbeck A/S, priority 1985, dated 1987).

Common to all, as to format: in vivo
Data set [1] relates to L 1210 lymphoid leukaemia. Kind of data set: Antitumor test in mice, L 1210 lymphoid leukaemia model (ILS %). The following applies: L 1210, i.p. suspension in methylcellulose, q 8 hrs × 6, 150 mg/kg. The text has this: (§1) The compound N-(4-dimethylamino-2,2-diphenyl-3-methyl-1-butyl)-urea, (in the following called Lu 9-110), has been tested in mice given several daily/weekly injections against the following experimental model tumors:
L 1210 lymphoid leukaemia

The nature of data set [2]: Preliminary toxicity experiments over 1 and 4 weeks (myelosuppression). Particulars: repeated administration, mice.
In data set [3] the test system is Ehrlich Ascites tumor (EAT). Kind of data set: Antitumor test in mice, Ehrlich Ascites tumor (EAT) model (ILS %). Particulars: i.p. suspension in methylcellulose, q 8 hrs × 6, 150 mg/kg.
Text: as §1
Ehrlich Ascites tumor (EAT)

A short description of data set [4]: Toxicity of Lu 9-110 (LD10, LD50). Particulars: for LD50: mouse, in vivo, ip.
Data set [5] has as its system P 388 lymphocytic leukaemia. The data set is described as follows: Antitumor test in mice, P 388 lymphocytic leukaemia model (ILS %).
Text: as §1
P 388 lymphocytic leukaemia

Where [6] appears, read: i.p. solution, accumulated dose.
[7] abbreviates: i.p. suspension, accumulated dose (independent of schedule).

Turning to `CC(CN(C)C)C(CNC(N)=O)(c1ccccc1)c1ccccc1` (stereo not shown) [Lu 9-110, N-(4-Dimethylamino-2,2-diphenyl-3-methyl-1-butyl)-urea], the ILS % stood at 33% in data set [1]; 120% in data set [3]; 67% in data set [5] (P 388, aqueous solution, q 3 hrs × 8, 50 mg/kg); 33% in data set [5] (P 388, aqueous solution, q 8 hrs × 3, 100 mg/kg); 9% in data set [5] (P 388, aqueous solution, ×1, 100 mg/kg); 92% in data set [5] (P 388, i.p. suspension in methylcellulose, q 8 hrs × 6, 150 mg/kg). The myelosuppression entry in data set [2] is “only very slight myelosuppression”. Besides, the LD10 in data set [4] (setting [6]) is 300 to 500 mg/kg; in data set [4] (i.p. solution, single dose), ~ 100 mg/kg; in data set [4] (setting [7]), ~ 1100 mg/kg. Also, the LD50 was 400 to 600 mg/kg in data set [4] (setting [6]); about 150 mg/kg in data set [4] (i.p. solution, single dose); about 1400 mg/kg in data set [4] (setting [7]).
